Measured values published in patent US9199975B2, “Biaryl imidazole derivatives for regulating CYP17” (Asana Biosciences, LLC, priority 2011, dated 2015).

Columns and labels:
human CYP17 = target: T1, human CYP17 (Homo sapiens, UniProt P05093); test: Cell-based human CYP17 inhibition assay, LNCap-CYP17 cells; settings: 16 hours at 37° C.
T1 sequence (P05093 1-508): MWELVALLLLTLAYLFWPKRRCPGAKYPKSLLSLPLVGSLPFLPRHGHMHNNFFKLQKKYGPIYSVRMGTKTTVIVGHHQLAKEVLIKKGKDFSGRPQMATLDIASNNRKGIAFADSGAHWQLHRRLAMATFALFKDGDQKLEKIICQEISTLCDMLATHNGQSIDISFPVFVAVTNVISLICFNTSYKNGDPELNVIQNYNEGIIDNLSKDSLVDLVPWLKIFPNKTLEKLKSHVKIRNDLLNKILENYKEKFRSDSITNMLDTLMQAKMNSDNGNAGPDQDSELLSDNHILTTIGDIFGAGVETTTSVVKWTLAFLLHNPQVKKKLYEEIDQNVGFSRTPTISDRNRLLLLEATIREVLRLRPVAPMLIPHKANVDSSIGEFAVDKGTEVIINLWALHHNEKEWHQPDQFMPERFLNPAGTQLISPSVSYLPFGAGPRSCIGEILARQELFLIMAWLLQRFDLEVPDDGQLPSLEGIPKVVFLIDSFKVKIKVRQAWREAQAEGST
Procedure: Cell-Based Human CYP17 Inhibition Assay
A. Materials • 1. H295R Adrenocortical Carcinoma Cells and Growth Media: The media for the H295R Adrenocortical carcinoma cells [NCI-H295A, ATCC Number CRL-2128, American Type Culture Collection, Manassas, Va., US] (500 mL) was a DMEM:F12 Mix 1:1 with 5% […] BD Nu Serum; 1% (5 mL) ITS+Premix [BD Biosciences] and 1% Penstrep. • 2. LNCap-CYP17 Cells and Growth Media: Full length hCYP17a1 gene (NCBI Reference Sequence: NM_000102.3) was cloned in pCDNA3.1(+) vector between HindIII and XhoI site. The pCDNA3.1(+) vector contains the Neomycin resistance gene and was used for selection of stable cell line. The hCYP17a1 containing pCDNA3.1(+) was transfected into LNCap cells to create the LNCap-CYP17 cell line. The media for the LNCaP-CYP17 cells was RPMI 1640, 10% FBS, 1% PenStrep, Geneticin 400 μg/mL.
The H295R cells or LNCaP-hCYP17 cells were subcultured and 30,000 cells per well were seeded in a poly-d lysine plate and incubated overnight at 37° C. The next day the media was removed and 200 µL of fresh media with ^3H3-17α-hydroxy-pregnenolone (1:1000) was added. 50 μL of serially diluted compounds from a 5× plate (5 times the final desired concentration) was added. The working concentration range for active, new compounds started from a high concentration of […] with 3-fold serial dilutions generating up to 10 concentrations. The serial dilution in the 100× plate (in DMSO) and the stamping of a 5× plate (in media) from the 100× plate were carried out using a TECAN liquid handling device.
The plates were incubated overnight (16 hours) at 37° C. After 16 hours, the media was removed (approximately 220 μL) and an equal amount of chloroform was added, mixed and incubated for 30 minutes at 4 degrees. The plate was centrifuged at 4000 rpm for 15 minutes at 4° C., following which the top aqueous layer was carefully removed and added into a new deep well plate. An equal volume of activated 5% charcoal was added, mixed and incubated for 30 minutes at 4° C. The plate was then centrifuged at 4000 rpm for 15 minutes at 4° C. and the top layer carefully separated, avoiding any charcoal contamination, and placed in a white, clear bottom plate (plate cat #3610, Corning Life Sciences). An equal volume of Microscint™ 40 was added and mixed well. Following the incubation for 30 minutes, readings for the radiotracer were taken using a Microbeta® trilux.

[1] = tested on: testosterone production in H295R cells; test: Cell-based functional assay for testosterone production in H295R cells; settings: Homo sapiens, NCI-H295R, 72 hours, testosterone ELISA, read-out: Testosterone (human H295R adrenal cells)
Procedure: Cell-based Functional Assay for Testosterone Production
H295R cells (ATCC Number CRL-2128) were subcultured, seeded (30,000 cells per well in a poly-d lysine plate) and left overnight at 37° C. The next day (after approximately 24 hours), the media were removed and 200 μL fresh media were added. Then, 50 μL of serially diluted compounds was added from a 5× plate. The serial dilution in the 100× plate (in DMSO) and the stamping of a 5× plate (in media) from the 100× plate were carried out using a TECAN liquid handling device. The plate was incubated at 37° C. for 72 hours. After incubation, the media was removed, diluted 5 to 10 times with calibration diluent RD5-48, and the assay performed as per manufacturer's protocol (Parameter Testosterone Assay, Cat. No. KGE010, R&D systems; http://www.rndsystems.com/pdf/KGE010.pdf).

| Compound | IC50 (human CYP17) | IC50 [1] |
| --- | --- | --- |
| CCC(c1ccc(-c2cccc(OC)c2)cn1)n1ccnc1 (stereo not drawn) [Example 7, 2-(1-(1H-imidazol-1-yl)propyl)-5-(3-methoxyphenyl)pyridine] | 0.05 to 0.2 µM | – |
| CC(c1ccc(-c2ccc(F)cc2)cn1)n1ccnc1 (stereo not drawn) [Example 12, 2-(1-(1H-imidazol-1-yl)ethyl)-5-(4-fluorophenyl)pyridine] | – | 0.201 to 10 µM |
| CC(c1ccc(-c2ccc(=O)n(C)c2)s1)n1ccnc1 (stereo not drawn) [Example 20, 5-(5-(1-(1H-imidazol-1-yl)ethyl)thiophen-2-yl)-1-methylpyridin-2(1H)-one] | – | < 0.05 µM |
| CC(c1ccc(-c2ccc(=O)n(C(C)C)c2)s1)n1ccnc1 (stereo not drawn) [Example 21, 5-(5-(1-(1H-imidazol-1-yl)ethyl)thiophen-2-yl)-1-isopropylpyridin-2(1H)-one] | – | 0.201 to 10 µM |
| CC(c1cnc(-c2ccc(C#N)cc2)s1)n1ccnc1 (stereo not drawn) [Example 22, 4-(5-(1-(1H-imidazol-1-yl)ethyl)thiazol-2-yl)benzonitrile] | – | 0.201 to 10 µM |
| CC(c1cnc(-c2ccc(F)cc2F)s1)n1ccnc1 (stereo not drawn) [Example 28, 2-(2,4-Difluoro-phenyl)-5-(1-imidazol-1-yl-ethyl)-thiazole] | – | 0.05 to 0.2 µM |

Second part, led by results:

| IC50 (human CYP17) | Compound | IC50 [1] |
| --- | --- | --- |
| 0.201 to 10 µM | CCOC(=O)c1ccc(-c2ccc(C(CC)n3ccnc3)nc2)cc1 (stereo not drawn) [Example 5, Ethyl 4-(6-(1-(1H-imidazol-1-yl)propyl)pyridin-3-yl)benzoate] | – |
| 0.05 to 0.2 µM | CCC(c1ccc(-c2cccc(O)c2)cn1)n1ccnc1 (stereo not drawn) [Example 8, 3-(6-(1-(1H-imidazol-1-yl)propyl)pyridin-3-yl)phenol] | – |
| 0.05 to 0.2 µM | CCC(c1ccc(-c2ccc(OC)cc2)o1)n1ccnc1 (stereo not drawn) [Example 27, 1-{1-[5-(4-Methoxy-phenyl)-furan-2-y]-propyl}-1H-imidazole] | – |
| < 0.05 µM | CCC(c1ccc(-c2ccc(O)cc2)o1)n1ccnc1 (stereo not drawn) [Example 30, 4-[5-(1-Imidazol-1-yl-propyl)-furan-2-yl]-phenol] | – |
| 0.201 to 10 µM | CCC(c1cnc(-c2ccc(OC)cc2)s1)n1ccnc1 (stereo not drawn) [Example 35, 5-(1-Imidazol-1-yl-propyl)-2-(4-methoxy-phenyl)-thiazole] | – |
| 0.201 to 10 µM | CCC(c1ccc(-c2ccccc2O)cn1)n1ccnc1 (stereo not drawn) [Example 37, 2-[6-(1-Imidazol-1-yl-propyl)-pyridin-3-yl]-phenol] | – |
| 0.05 to 0.2 µM | CC(c1ccc(-c2ccc(O)cc2)s1)n1ccnc1 (stereo not drawn) [Example 49, 4-[5-(1-Imidazol-1-yl-ethyl)-thiophen-2-yl]-phenol] | – |
| 0.201 to 10 µM | CCC(c1ccc(-c2ccccc2OC)cn1)n1ccnc1 (stereo not drawn) [Example 56, 2-(1-Imidazol-1-yl-propyl)-5-(2-methoxy-phenyl)-pyridine] | – |
| 0.201 to 10 µM | CCC(c1cnc(-c2ccc(O)cc2)s1)n1ccnc1 (stereo not drawn) [Example 60, 4-[5-(1-Imidazol-1-yl-propyl)-thiazol-2-yl]-phenol] | – |
